The results in this text go back to patent publication US7198906B2, “Drug sensitivity measuring method” (priority 2000, dated 2007).

Assay [1] concerns E. coli resistant strain 5W (ABPC plasmid introduction). As to the kind of experiment: Drug susceptibility measurement with dissolved oxygen electrode, resistant strain. It is filed as cell-based. The text has this:
(§1) In step SP1, measurement of currents (output signals) is started by applying predetermined voltages to electrodes for measuring dissolved oxygen concentration. The electrodes are provided within a first compartment or well, second compartment or well, and third compartment or well, respectively. The first compartment or well is a compartment or well containing only physiological salt solution. The second compartment or well is a compartment or well containing physiological salt solution and drug solution of a first predetermined concentration. The third compartment or well is a compartment or well containing physiological salt solution and drug solution of a second predetermined concentration. […] In step SP4, current from each electrode for measuring dissolved oxygen concentration is measured at a second time interval for a third time period (for example, at every 1 second for 60 seconds). In step SP5, each time is obtained based upon each of the measured currents at which the maximum current is obtained. […] In step SP7, drug susceptibility is detected based upon the variation condition of each current value during the fourth time period. […]
(§2) Next, the electrode for measuring the dissolved oxygen concentration is mounted to each compartment or well. […] After the measurement time of 360 seconds has passed, the measured currents are stored and the measured currents are analyzed. […]

Assay [2] deals with E. coli sensitive strain JM109. As to the kind of experiment: Drug susceptibility measurement with dissolved oxygen electrode, sensitive strain. The format is cell-based.
Excerpt: as §1, §2

As for `CC1(C)S[C@@H]2[C@H](NC(=O)[C@H](N)c3ccccc3)C(=O)N2[C@H]1C(=O)O` [ABPC, Ampicillin], the “variation characteristic of measured current (dissolved oxygen) following passage in time, curve versus control” value in assay [1] (5W+ABPC, control JM109 as reference, FIGS. 2 and 3) was “equal to or more steep than the curve corresponding to the control”; in assay [2] (JM109+ABPC, control JM109 as reference, FIGS. 2 and 3), “more gentle than curves each corresponding to the control and the resistant strain”. The “inclination of measured current for 10 seconds from the peak timing, supposing the inclination corresponding to the control to be 100%” value is recorded as 96.1–122.9% in assay [1] (resistant strain 5W + ABPC solution 5.3 μg/ml, entire amount 0.25 ml and 0.5 ml, control JM109 without drug = 100%); 79.0–85.4% in assay [2] (sensitive strain JM109 + ABPC solution 5.3 μg/ml, entire amount 0.25 ml and 0.5 ml, control JM109 without drug = 100%).
